This is an account of results in patent US8563550B2, “Imidazolothiadiazoles for use as protein kinase inhibitors” (Centro Nacional de Investigaciones Oncologicas (CNIO), priority 2007, dated 2013).

In the first test the target is T1, PIM-1 (Homo sapiens, UniProt P11309).
T1 construct: histidine tag (C); made in house
T1 sequence (P11309 whole entry): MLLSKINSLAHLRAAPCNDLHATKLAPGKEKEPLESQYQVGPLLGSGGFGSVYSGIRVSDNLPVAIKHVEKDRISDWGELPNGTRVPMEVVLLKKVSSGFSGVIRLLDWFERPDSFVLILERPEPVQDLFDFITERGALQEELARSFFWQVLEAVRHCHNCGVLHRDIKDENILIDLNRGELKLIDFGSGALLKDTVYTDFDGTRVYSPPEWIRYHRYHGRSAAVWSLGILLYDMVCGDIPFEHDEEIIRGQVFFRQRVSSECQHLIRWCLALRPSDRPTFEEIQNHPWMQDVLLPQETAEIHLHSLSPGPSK
Nature of the test: PIM-1 biochemical assay (ADP Hunter assay kit). The following applies: compound concentration 10 μM; approximate values. An excerpt:
The biochemical assay to measure PIM-1 activity relies on the ADP Hunter assay kit (DiscoveRx Corp., Cat. #90-0077), that determines the amount of ADP as direct product of the kinase enzyme activity.
The enzyme has been expressed and purified in-house as a recombinant human protein with a C-terminal histidine tag. The protein is active and stable.
Assay conditions were as indicated by the kit manufacturers with the following adaptations for the kinase activity step: • Kinase assay buffer and assay volume stay as recommended (15 mM HEPES, pH 7.4, 20 mM NaCl, 1 mM EGTA, 0.02% Tween 20, 10 mM MgCl2 and 0.1 mg/ml bovine γ-globulins/75 μl assay volume) • Incubation time and temperature: 60 min at 30° C. • PIM-1 concentration: 50 pg/μl • ATP concentration: 100 μM • PIM-1 substrate peptide: PIMtide (ARKRRRHPSGPPTA) • Peptide concentration: 60 μM • Positive control for kinase activity inhibition: 1-10 μM Staurosporine • DMSO concentration have to stay below 2% during the kinase reaction
Assays were performed in either 96 or 384-well plates. The final outcome of the coupled reactions provided by the kit is the release of the fluorescent product Resorufin and has been measured with a multilabel HTS counter VICTOR V (PerkinElmer) using an excitation filter at 544 nm and an emission filter at 580 nm.
For the molecule “4-{2-[(Furan-2-ylmethyl)-amino]-imidazo[2,1-b][1,3,4]thiadiazol-5-yl}-phenol [34(40)]”, the “Percentage Inhibition of PIM-1 at 10 μM” value worked out at 100%.

As for `FC(F)(F)Oc1cccc(-c2cnc3sc(NCC4CC4)nn23)c1` [34(39), Cyclopropylmethyl-[5-(3-trifluoromethoxy-phenyl)-imidazo[2,1-b][1,3,4]thia-diazol-2-yl]-amine], the “Percentage Inhibition of PIM-1 at 10 μM” value is given as 82%.

Staying with this test, now noted: compound concentration 10 μM; approximate values; read-out: Percentage Inhibition of PIM-1 at 10 μM.
Turning to `COCCNc1nn2c(-c3ccc(F)c(Cl)c3)cnc2s1` [34(14), [5-(3-Chloro-4-fluoro-phenyl)-imidazo[2,1-b][1,3,4]thiadiazol-2-yl]-(2-meth-oxyethyl)-amine], the inhibition at 10 µM is 96%.

Take `CN(C)c1cccc(-c2cnc3sc(Oc4ccc(F)cc4)nn23)c1` [Example 15, {3-[2-(4-Fluoro-phenoxy)-imidazo[2,1-b][1,3,4]thiadiazol-5-yl]-phenyl}-dimethyl-amine]: the inhibition at 10 µM was determined as 89%.

On to `COc1ccc(CNc2nn3c(-c4ccc5ccccc5c4)cnc3s2)cc1` [34(12), (4-Methoxy-benzyl)-(5-naphthalen-2-yl-imidazo[2,1-b][1,3,4]thiadiazol-2-yl)-amine], for which the inhibition at 10 µM was determined as 58%.

Consider `Fc1ccc(CNc2nn3c(-c4cccnc4)cnc3s2)cc1` [34(57), (4-Fluoro-benzyl)-(5-pyridin-3-yl-imidazo[2,1-b][1,3,4]thiadiazol-2-yl)-amine], for which the inhibition at 10 µM was found to be 73%.

For the molecule `c1ccc(OCCNc2nn3c(-c4ccc5ccccc5c4)cnc3s2)cc1` [34(4), (5-Naphthalen-2-yl-imidazo[2,1-b][1,3,4]thiadiazol-2-yl)-(2-phenoxy-ethyl)-amine], the inhibition at 10 µM was determined as 71%.

Take `CC(=O)c1cccc(-c2cnc3sc(NCCN4CCOCC4)nn23)c1` [34(65), 1-{3-[2-(2-Morpholin-4-yl-ethylamino)-imidazo[2,1-b][1,3,4]thiadiazol-5-yl]-phenyl}-ethanone]: the inhibition at 10 µM came out at 77%.

As to `c1ccc2cc(-c3cnc4sc(NCC5CC5)nn34)ccc2c1` [34(10), Cyclopropylmethyl-(5-naphthalen-2-yl-imidazo[2,1-b][1,3,4]thiadiazol-2-yl)-amine], the inhibition at 10 µM turned out to be 77%.

With `COCCNc1nn2c(-c3ccc4ccccc4c3)cnc2s1` [34(8), (2-Methoxy-ethyl)-(5-naphthalen-2-yl-imidazo[2,1-b][1,3,4]thiadiazol-2-yl)-amine], the inhibition at 10 µM is 98%.

Consider `Clc1cccc(-c2cnc3sc(NCCc4ccccn4)nn23)c1` [34(5), [5-(3-Chloro-phenyl)-imidazo[2,1-b][1,3,4]thiadiazol-2-yl]-(2-pyridin-2-yl-ethyl)-amine], for which the inhibition at 10 µM came out at 98%.

For the molecule `Fc1ccc(-c2cnc3sc(-c4ccccc4)nn23)cc1` [Example 4, 5-(4-Fluorophenyl)-2-phenyl-imidazo[2,1-b][1,3,4]thiadiazole], the inhibition at 10 µM was 83%.

For `CC(C)CNc1nn2c(-c3cccc(N(C)C)c3)cnc2s1` [34(3), [5-(3-Dimethylamino-phenyl)-imidazo[2,1-b][1,3,4]thiadiazol-2-yl]-isobutyl-amine], the inhibition at 10 µM is 97%.

As to `Cc1cc(-c2cnc3sc(NCC4CC4)nn23)cc(C)c1O` [34(58), 4-[2-(Cyclopropylmethyl-amino)-imidazo[2,1-b][1,3,4]thiadiazol-5-yl]-2,6-dimethylphenol], the inhibition at 10 µM was determined as 97%.

For `Oc1ccc(-c2cnc3sc(Nc4ccc(F)cc4)nn23)cc1` [Example 18, 4-[2-(4-Fluoro-phenylamino)-imidazo[2,1-b][1,3,4]thiadiazol-5-yl]-phenol], the inhibition at 10 µM was determined as 82%.

Regarding `COc1ccc(CNc2nn3c(-c4ccc(F)c(Cl)c4)cnc3s2)cc1` [34(33), [5-(3-Chloro-4-fluoro-phenyl)-imidazo[2,1-b][1,3,4]thiadiazol-2-yl]-(4-meth-oxybenzyl)-amine], the inhibition at 10 µM was 84%.

For `CC(=O)c1cccc(-c2cnc3sc(NCc4cccs4)nn23)c1` [34(22), 1-(3-{2-[(Thiophen-2-ylmethyl)-amino]-imidazo[2,1-b][1,3,4]thiadiazol-5-yl}-phenyl)-ethanone], the inhibition at 10 µM stood at 82%.

On to `CN(C)c1cccc(-c2cnc3sc(NCC4CCOCC4)nn23)c1` [34(16), [5-(3-Dimethylamino-phenyl)-imidazo[2,1-b][1,3,4]thiadiazol-2-yl]-(tetrahydro-pyran-4-ylmethyl)-amine], for which the inhibition at 10 µM is 99%.
